Experimental data from US4416871A, “Inhibition by peptides of tolerance to and physical dependence on morphine” (The United States of America as represented by the …, priority 1982, dated 1983).

Key:
Type in all cases: in vivo
morphine-dependent mice [1] = assay: Body temperature, body weight and mortality during 3-day morphine pellet implantation with multiple peptide injections
Method: Male C57B1/6J, Swiss Webster, and ICR mice weighing 26±4 g (SD) were used in these studies.
(§1) The mice were randomly divided into two groups. One received SC injections of water (vehicle) while the other received the peptide under investigation (50 μg/mouse on day one). Two hours later the mice were further subdivided and each subgroup was implanted with placebo or morphine pellets. The injections of vehicle and peptide were repeated 24 and 48 hours after the first injection in their respective groups. Morphine pellets containing 75 mg of morphine free base were implanted subcutaneously (SC) between 10-11 A.M. and were removed 3 days later at the same time. The control animals were implanted with placebo pellets. Body temperature and weight were measured daily at 11 A.M. Temperature was measured using a lubricated rectal probe inserted 2.5 cm into the rectum and measured with a telethermometer (Model 43TA Yellow Springs Instrument Co., Yellow Springs, Ohio).
A similar relationship was found for the loss in body weight. Swiss Webster mice lost 16% and 14% in body weight when receiving Z-Pro-D-Leu or vehicle respectively. The C57B1/6J mice given Z-Pro-D-Leu/morphine lost 14%, while the vehicle/morphine group lost 11% in body weight during this period regardless of peptide or vehicle injections. There was one significant strain difference, i.e. a greater mortality during morphine treatment of C57B1/6J mice ([…], Binomial test).

[2] = Brain levels of morphine, fluorometric; details: Swiss Webster mice, third day of morphine treatment, n=6
Method: Brain levels of morphine were measured in mice which received either the peptide or vehicle injections. For these studies mice were also sacrificed on the third day following morphine implantation. The mice were then sacrificed by decapitation, brains were rapidly removed, frozen on dry ice, and stored at -80° C. until assay for morphine content. Brain morphine concentrations were determined fluorometrically (Bhargava, H. N., J. Pharma. Sci., 66, 1044-1045[1977]).

morphine-dependent mice [3] = assay: Analgesia during morphine pellet implantation: jump threshold on electrified grid; details: peptide-injected mice receiving morphine
Method: (§2) The level of analgesia was tested on each of the three days of the experiment. This was accomplished by measuring the jump threshold to an increasing electrical current in an electrified grid attached to a BRS/LVE #SGS-004 shock generator/scrambler (Evans, W. D., Phychopharmacol., 2, 318-325[1961]). Mice were tested only once and thereafter discarded from the experiment. When determining the effect of the peptide on overt signs of physical dependence (body temperature and weight) and tolerance (body temperature and analgesia), the peptide or vehicle was injected only once on the third day of the morphine or placebo pellet implantation (25 hours prior to the removal of the pellet).
Inhibition of development of tolerance to and physical dependence upon morphine by Z-Pro-D-Leu. The jump threshold in vehicle-injected, morphine-dependent mice decreased, indicating development of tolerance to the analgesic properties of morphine. Threshold scores were: 4.00±0.18;3.50±0.52; 2.55±0.44; on days 1-3 respectively, (n=6 for each group).

morphine-dependent mice [4] = assay: Abrupt withdrawal after pellet removal: body temperature and body weight for 10 hours (FIG. 1); details: Swiss Webster mice, any time point up to 10 hours
Method: FIG. 1 illustrates the inhibition of development of physical dependence (abrupt withdrawal) by Z-Pro-D-Leu. Swiss Webster mice were implanted with either morphine or placebo tablets for a period of 3 days. Following removal of the pellets, body temperature and body weight were followed for 10 hours. Panel (a) represents the change in body temperature: (Δ--Δ) Z-Pro-D-Leu/morphine; (O--O) vehicle/morphine; ( -- ) Z-Pro-D-Leu/placebo; ( -- ) vehicle/placebo. Panel (b) represents the maximal loss in body weight during the same period.
To determine the effects of peptide treatment on the development of physical dependence, the abstinence syndrome was precipitated using the morphine antagonist naloxone (Endo Laboratories Inc., N.Y.) at the appropriate dose (0.1, 0.25, or 0.50 mg/kg) injected intraperitoneally (IP) one hour following removal of morphine and placebo pellets. Pellet removal was performed 24 hours after the last peptide injection. These mice were monitored for changes in body temperature (see above) and body weight at 15 min. intervals for one hour after the naloxone injection. Effects of removing the pellets (withdrawing morphine) were also assessed by utilizing body temperature and weight as physical dependence parameters; however, these measurements were made at 2 hour intervals for 10 hours after the removal of the pellets. […]

morphine-dependent mice [5] = assay: Naloxone-precipitated withdrawal: body temperature and withdrawal signs
Method: as §1
To determine the effects of peptide treatment on the development of physical dependence, the abstinence syndrome was precipitated using the morphine antagonist naloxone (Endo Laboratories Inc., N.Y.) at the appropriate dose (0.1, 0.25, or 0.50 mg/kg) injected intraperitoneally (IP) one hour following removal of morphine and placebo pellets. Pellet removal was performed 24 hours after the last peptide injection. These mice were monitored for changes in body temperature (see above) and body weight at 15 min. intervals for one hour after the naloxone injection. Effects of removing the pellets (withdrawing morphine) were also assessed by utilizing body temperature and weight as physical dependence parameters; however, these measurements were made at 2 hour intervals for 10 hours after the removal of the pellets. Placebo implanted mice were treated in the same manner as the morphine pellet implanted mice.

morphine-dependent mice [6] = assay: Tolerance to hypothermic and analgesic effects of ICV morphine 24 hours after pellet removal; details: for Jump Threshold: one hr. after ICV morphine
Method: as §2
Tolerance to hypothermic and analgesic effects of morphine injected intracerebroventricularly (ICV) was assessed 24 hours after the removal of the pellets in mice not injected with naloxone. The ICV injection was 40 μg of morphine sulfate solution in 10 μl volume. Body temperature was recorded prior to and at 10 and 15 min. after injection of morphine. Analgesia was determined one hour after the ICV injection.

morphine-dependent mice [7] = assay: Naloxone-precipitated withdrawal: body temperature and withdrawal signs; remark: listed apart in the source
[8] = C57B1/6J, Z-Pro-D-Leu/morphine, peptide day 3 only, n=6, ICV morphine challenge
[9] = C57B1/6J, Z-Pro-D-Leu/placebo pellets, n=8, ICV morphine challenge
[10] = C57B1/6J, Z-Pro-D-Leu/placebo, peptide day 3 only, n=6, ICV morphine challenge
[11] = Swiss Webster, Z-Pro-D-Leu/morphine pellets, n=15, ICV morphine challenge
[12] = Swiss Webster, Z-Pro-D-Leu/placebo pellets, n=8, ICV morphine challenge

Question: Which “number of deaths, peptide/morphine compared with vehicle/morphine” value (morphine-dependent mice [1]; C57B1/6J P=0.32, Swiss Webster P=0.65, Binomial test) does the source give for Z-Pro-D-Leu here?
Answer: Its value is “no difference in the number of deaths”.

Question: And the “body temperature (X) on the third day of morphine treatment” value (morphine-dependent mice [1]; Swiss Webster mice, morphine pellets, multiple injections of peptide 50 μg/mouse SC, day 3, n=14)?
Answer: Its value is -1.5 °C.

Question: What about the “body temperature on days 1 and 2 versus vehicle” value (morphine-dependent mice [1]; Swiss Webster or C57B1/6J mice receiving morphine, days 1 and 2) of the same substance?
Answer: The value was “no significant difference in body temperature”.

Question: What about the brain morphine levels [2] of the same substance?
Answer: The brain morphine levels was 288 ± 99 µg/g.

Question: And the jump threshold score (morphine-dependent mice [3]; day 1)?
Answer: The jump threshold score was 4.07±0.27.

Question: What about the jump threshold score (morphine-dependent mice [3]; day 2) of the same substance?
Answer: Its jump threshold score is 4.27±0.62.

Question: What about the jump threshold score (morphine-dependent mice [3]; day 3) of the same substance?
Answer: Its jump threshold score is 4.45±0.64.

Question: What about the “hypothermia and loss of body weight during abstinence, peptide/morphine versus the two control groups” value (morphine-dependent mice [4]) of the same substance?
Answer: The value was “no significant difference”.

Question: And the “Withdrawal, % of control (jumping, shakes, diarrhea)” value (morphine-dependent mice [5]; Table II, peptide 50 μg per mouse, naloxone 0.1 mg/kg)?
Answer: Its value is 9%.

Question: And the “Δt, °C. (difference in body temperature just prior to naloxone and 30 min. thereafter)” value (morphine-dependent mice [5]; Table II, peptide 50 μg per mouse, naloxone 0.1 mg/kg, mean ± SD)?
Answer: The value was -0.09 ± 0.58 °C.

Question: And the “Withdrawal, % of control” value (morphine-dependent mice [5]; Table III, dose 50 μg)?
Answer: The value was 9%.

Question: And the “Δt, °C.” value (morphine-dependent mice [5]; Table III, dose 50 μg)?
Answer: Its value is -0.09 ± 0.58 °C.

Question: And the “lowest dose still effective in blocking physical dependence on morphine” value (morphine-dependent mice [5]; dose-response experiments, Table III)?
Answer: Its value is 5 μg per mouse.

Question: And the “ability to block development of physical dependence on morphine” value (morphine-dependent mice [5]; naloxone-precipitated withdrawal, Tables II and III)?
Answer: Its value is “exhibited activity”.

Question: And the “Δt (15 min.)” value (morphine-dependent mice [6]; C57B1/6J, Z-Pro-D-Leu/morphine pellets, n=9, ICV morphine challenge)?
Answer: The value was -2.12 ± 0.52.

Question: What about the “Δt (10 min.)” value (morphine-dependent mice [6]; C57B1/6J, Z-Pro-D-Leu/morphine pellets, n=9, ICV morphine challenge 24 hrs after pellet removal) of the same substance?
Answer: The value was -2.04 ± 0.42.

Question: What about the “Δt (10 min.)” value (morphine-dependent mice [6]; [8]) of the same substance?
Answer: Its value is -0.75 ± 0.19.

Question: What about the “Δt (15 min.)” value (morphine-dependent mice [6]; [8]) of the same substance?
Answer: The value was -1.00 ± 0.16.

Question: What about the “Jump Threshold” value (morphine-dependent mice [6]; C57B1/6J, Z-Pro-D-Leu/morphine, peptide day 3 only, n=6) of the same substance?
Answer: Its value is 2.12 ± 0.34.

Question: And the “Δt (10 min.)” value (morphine-dependent mice [6]; [9])?
Answer: The value was -1.76 ± 0.33.

Question: What about the “Δt (15 min.)” value (morphine-dependent mice [6]; [9]) of the same substance?
Answer: The value was -2.19 ± 0.41.

Question: What about the “Jump Threshold” value (morphine-dependent mice [6]; C57B1/6J, Z-Pro-D-Leu/placebo pellets, n=8) of the same substance?
Answer: The value was 3.79 ± 0.39.

Question: And the “Δt (10 min.)” value (morphine-dependent mice [6]; [10])?
Answer: Its value is -1.85 ± 0.25.

Question: What about the “Δt (15 min.)” value (morphine-dependent mice [6]; [10]) of the same substance?
Answer: The value was -1.88 ± 0.17.

Question: What about the “Jump Threshold” value (morphine-dependent mice [6]; C57B1/6J, Z-Pro-D-Leu/placebo, peptide day 3 only, n=6) of the same substance?
Answer: Its value is 4.05 ± 0.85.

Question: And the “Δt (10 min.)” value (morphine-dependent mice [6]; [11])?
Answer: The value was -1.10 ± 0.29.

Question: What about the “Δt (15 min.)” value (morphine-dependent mice [6]; [11]) of the same substance?
Answer: The value was -1.32 ± 0.34.

Question: And the “Jump Threshold” value (morphine-dependent mice [6]; Swiss Webster, Z-Pro-D-Leu/morphine pellets, n=15)?
Answer: Its value is 4.33 ± 0.54.

Question: What about the “Δt (10 min.)” value (morphine-dependent mice [6]; [12]) of the same substance?
Answer: The value was -1.16 ± 0.30.

Question: What about the “Δt (15 min.)” value (morphine-dependent mice [6]; [12]) of the same substance?
Answer: The value was -1.48 ± 0.46.

Question: What about the “Jump Threshold” value (morphine-dependent mice [6]; Swiss Webster, Z-Pro-D-Leu/placebo pellets, n=8) of the same substance?
Answer: Its value is 4.18 ± 0.41.

Question: And the “response to ICV injection of morphine” value (morphine-dependent mice [6]; peptide given during chronic morphine treatment)?
Answer: Its value is “not significantly different from morphine-naive mice”.

Question: What about the “response to ICV injection of morphine” value (morphine-dependent mice [6]; peptide given only on the third day of pellet implantation) of the same substance?
Answer: Its value is “did not effectively alter the manifestation of tolerance”.

Question: And the “Withdrawal, % of control” value (morphine-dependent mice [7]; Table III, dose 0.5 μg)?
Answer: Its value is 100%.

Question: And the “Withdrawal, % of control” value (morphine-dependent mice [7]; Table III, dose 5 μg)?
Answer: The value was 25%.

Question: And the “Δt, °C.” value (morphine-dependent mice [7]; Table III, dose 5 μg)?
Answer: The value was -0.05 ± 0.37 °C.

Question: What about the “body temperature response 30 min after naloxone” value (morphine-dependent mice [7]; peptide injection only on the third day of morphine treatment) of the same substance?
Answer: Its value is “hypothermic response”.

Question: And the “body temperature response 30 min after naloxone” value (morphine-dependent mice [7]; peptide/morphine treatment, multiple injections, naloxone 0.1-0.50 mg/kg IP)?
Answer: The value was “mild hyperthermia”.
